In PubChem BioAssay AID1963831 (Molecular Pharmacology Branch, DTP, NCI, 2024):

Tested on: 889142-216-R-J1-PDC complex spheroid viability
Test: Anticancer human tumor 889142-216-R-J1-PDC patient-derived bladder carcinoma cell line growth inhibition [POLQ]
Conditions: for IC50: curve of first compound; for viability, T/C: stronger effect = lower value; active = viability on the fitted dose curve at most 10% of control; inactive = the rest
In short: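 Patient-derived tumour cells were co-cultured with HUVEC and mesenchymal stem cells as multicellular spheroids at 37 °C. They were treated with POLQ inhibitors (novobiocin, ART-558, RP6685) alone or combined with other agents. Top concentrations were at or near clinical Cmax (otherwise 10 microM; SN-38 at 1 microM), decreasing in half-log steps.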

[1] = second compound 0.0316 µM, first compound 0.00316 µM
[2] = second compound 0.0316 µM, first compound 0.01 µM
[3] = second compound 0.0316 µM, first compound 0.0316 µM
[4] = second compound 0.0316 µM, first compound 0.1 µM
[5] = second compound 0.1 µM, first compound 0.00316 µM
[6] = second compound 0.1 µM, first compound 0.01 µM
[7] = second compound 0.1 µM, first compound 0.0316 µM
[8] = second compound 0.1 µM, first compound 0.1 µM
[9] = second compound 0.316 µM, first compound 0.00316 µM
[10] = second compound 0.316 µM, first compound 0.01 µM
[11] = second compound 0.316 µM, first compound 0.0316 µM
[12] = second compound 0.316 µM, first compound 0.1 µM
[13] = second compound 1 µM, first compound 0.00316 µM
[14] = second compound 1 µM, first compound 0.01 µM
[15] = second compound 1 µM, first compound 0.0316 µM
[16] = second compound 1 µM, first compound 0.1 µM
[17] = second compound 3.16 µM, first compound 0.00316 µM
[18] = second compound 3.16 µM, first compound 0.01 µM
[19] = second compound 3.16 µM, first compound 0.0316 µM
[20] = second compound 3.16 µM, first compound 0.1 µM
[21] = second compound 10 µM, first compound 0.00316 µM
[22] = second compound 10 µM, first compound 0.01 µM
[23] = second compound 10 µM, first compound 0.0316 µM
[24] = second compound 10 µM, first compound 0.1 µM
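Note: spheroids exposed to compounds for seven days.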
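Throughout, for viability, T/C: 100% = DMSO vehicle control viability.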

COc1cccc(OCCCN)c1-c1cc(Nc2cnc(C#N)cn2)n[nH]1 + Nc1ccc(C#CCN(C(=O)Cc2ncc(C(F)(F)F)cc2C(F)(F)F)c2ccc(F)cc2)nn1
32.9 nM: IC50 (second compound 1 µM)
> 1000 nM: IC50 (second compound 10 µM)
161 nM: IC50 (second compound 0.1 µM)
93.3 nM: IC50 (second compound 0.316 µM)
29.3 nM: IC50 (second compound 3.16 µM)
136 nM: IC50 (second compound 0.0316 µM)
inactive: viability, T/C [1] 100% | viability, T/C [2] 77.4% | viability, T/C [3] 60.2% | viability, T/C [4] 45.8% | viability, T/C (second compound 0.0316 µM, first compound 0.316 µM) 51% | viability, T/C (second compound 0.0316 µM, first compound 1 µM) 49% | viability, T/C [5] 98.5% | viability, T/C [6] 75.1% | viability, T/C [7] 57.9% | viability, T/C [8] 54.6% | viability, T/C (second compound 0.1 µM, first compound 0.316 µM) 45.8% | viability, T/C (second compound 0.1 µM, first compound 1 µM) 46.2% | viability, T/C [9] 99.6% | viability, T/C [10] 71.8% | viability, T/C [11] 49.9% | viability, T/C [12] 49.9% | viability, T/C (second compound 0.316 µM, first compound 0.316 µM) 56.8% | viability, T/C (second compound 0.316 µM, first compound 1 µM) 43.6% | viability, T/C [13] 79.1% | viability, T/C [14] 68% | viability, T/C [15] 50% | viability, T/C [16] 44.5% | viability, T/C (second compound 1 µM, first compound 0.316 µM) 49% | viability, T/C (second compound 1 µM, first compound 1 µM) 39.5% | viability, T/C [17] 76.8% | viability, T/C [18] 76.7% | viability, T/C [19] 47.7% | viability, T/C [20] 48.9% | viability, T/C (second compound 3.16 µM, first compound 0.316 µM) 54% | viability, T/C (second compound 3.16 µM, first compound 1 µM) 41.9% | viability, T/C [21] 85.8% | viability, T/C [22] 70.6% | viability, T/C [23] 55.8% | viability, T/C [24] 51.8% | viability, T/C (second compound 10 µM, first compound 0.316 µM) 61% | viability, T/C (second compound 10 µM, first compound 1 µM) 45.6%

Cn1ncnc1[C@H]1c2n[nH]c(=O)c3cc(F)cc(c23)N[C@@H]1c1ccc(F)cc1 + Nc1ccc(C#CCN(C(=O)Cc2ncc(C(F)(F)F)cc2C(F)(F)F)c2ccc(F)cc2)nn1
inactive: viability, T/C (second compound 0.0316 µM, first compound 0.000316 µM) 96.8% | viability, T/C (second compound 0.0316 µM, first compound 0.001 µM) 121% | viability, T/C [1] 110% | viability, T/C [2] 85.7% | viability, T/C [3] 90.3% | viability, T/C [4] 87.4% | viability, T/C (second compound 0.1 µM, first compound 0.000316 µM) 176% | viability, T/C (second compound 0.1 µM, first compound 0.001 µM) 83.6% | viability, T/C [5] 92% | viability, T/C [6] 91.4% | viability, T/C [7] 105% | viability, T/C [8] 101% | viability, T/C (second compound 0.316 µM, first compound 0.000316 µM) 108% | viability, T/C (second compound 0.316 µM, first compound 0.001 µM) 102% | viability, T/C [9] 91.3% | viability, T/C [10] 79.6% | viability, T/C [11] 97.2% | viability, T/C [12] 73.2% | viability, T/C (second compound 1 µM, first compound 0.000316 µM) 127% | viability, T/C (second compound 1 µM, first compound 0.001 µM) 81.1% | viability, T/C [13] 124% | viability, T/C [14] 95.9% | viability, T/C [15] 67.4% | viability, T/C [16] 72.2% | viability, T/C (second compound 3.16 µM, first compound 0.000316 µM) 110% | viability, T/C (second compound 3.16 µM, first compound 0.001 µM) 124% | viability, T/C [17] 135% | viability, T/C [18] 77.1% | viability, T/C [19] 92.3% | viability, T/C [20] 87.2% | viability, T/C (second compound 10 µM, first compound 0.000316 µM) 122% | viability, T/C (second compound 10 µM, first compound 0.001 µM) 93.5% | viability, T/C [21] 113% | viability, T/C [22] 90.2% | viability, T/C [23] 115% | viability, T/C [24] 80.4%
> 100 nM: IC50 (second compound 0.0316 µM) | IC50 (second compound 0.1 µM) | IC50 (second compound 0.316 µM) | IC50 (second compound 1 µM) | IC50 (second compound 3.16 µM) | IC50 (second compound 10 µM)
